Measured values published in patent US11666584B2, “Steroidal hormones for the treatment and prevention of wave burst arrhythmia” (ASSISTANCE PUBLIQUE—HOPITAUX DE PARIS, priority 2016, dated 2023).
Like-named read-outs stand apart in the source and are kept apart here.

Tests used:
[1] = molecular target: T1, androgen receptor (NR3C4) (Homo sapiens, UniProt P10275); details: characteristic of the progestogen; cited from earlier work
T1 sequence (P10275 1-920): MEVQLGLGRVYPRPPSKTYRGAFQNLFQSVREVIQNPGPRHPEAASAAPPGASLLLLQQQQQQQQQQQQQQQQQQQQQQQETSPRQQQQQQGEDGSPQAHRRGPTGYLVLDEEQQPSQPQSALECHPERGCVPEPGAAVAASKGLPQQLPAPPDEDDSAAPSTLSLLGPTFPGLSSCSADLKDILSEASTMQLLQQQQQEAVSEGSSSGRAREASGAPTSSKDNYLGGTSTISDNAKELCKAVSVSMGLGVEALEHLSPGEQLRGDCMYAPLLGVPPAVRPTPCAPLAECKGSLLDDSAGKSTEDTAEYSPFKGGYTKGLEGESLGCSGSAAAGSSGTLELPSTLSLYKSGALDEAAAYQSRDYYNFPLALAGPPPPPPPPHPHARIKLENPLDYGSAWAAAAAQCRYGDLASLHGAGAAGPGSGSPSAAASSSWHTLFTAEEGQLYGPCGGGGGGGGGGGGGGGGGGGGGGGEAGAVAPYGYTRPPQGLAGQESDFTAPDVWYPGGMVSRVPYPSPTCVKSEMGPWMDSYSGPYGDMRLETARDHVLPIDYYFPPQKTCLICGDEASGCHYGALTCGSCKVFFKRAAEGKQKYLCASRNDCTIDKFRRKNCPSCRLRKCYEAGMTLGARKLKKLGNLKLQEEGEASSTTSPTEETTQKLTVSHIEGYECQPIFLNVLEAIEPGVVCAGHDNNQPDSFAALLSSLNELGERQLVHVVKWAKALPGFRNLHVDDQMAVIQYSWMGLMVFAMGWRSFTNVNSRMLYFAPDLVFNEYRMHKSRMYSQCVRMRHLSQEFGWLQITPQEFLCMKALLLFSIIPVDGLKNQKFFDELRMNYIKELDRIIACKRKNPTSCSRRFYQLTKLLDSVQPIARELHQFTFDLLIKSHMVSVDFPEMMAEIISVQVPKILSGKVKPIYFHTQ

torsades de pointes = experiment: Clinical case: testosterone in a person with hypogonadism and arrhythmic storm on torsades de pointes (Example 3); type: in vivo, human
Method: Peripheral hypogonadism was identified in a person suffering from ischemic cardiopathy and from Erdheim-Chester disease with arrhythmic storm on torsades de pointes with long QT and notching (double peak (notch) of the T wave) promoted by iatrogenesis and bradycardia with more than seven episodes in less than one week.
Testosterone (Androtardyl, testosterone enantate 250 mg/ml) was administered to the patient in amounts which made it possible to maintain a testosterone level making it possible to correct their hypogonadism, the bradycardia was corrected and an implantable defibrillator was implanted as secondary prevention.

IKr potassium channel [2] = molecular target: T2, IKr potassium channel (Homo sapiens, UniProt Q12809)
Method: Statistics: ns represents p>0.1. Various tests (Chi^2 test with trend, one-way ANOVA with Tukey or Kruskal-Wallis post-test with Dunn's post-test) were used. The quantitative data are presented as a mean±standard error or median with interquartile range.
The PC1 value is obtained by analysis by main components of the variables ΔQTc (%), ΔTpTe (%) and ΔTAmp (%) and quantitatively reflects the IKr inhibition obtained three hours after taking sotalol.
The ΔQTcF, ΔTpTe and ΔTAmp were also calculated.

[3] = characteristic of the pill's progestogen; cited from earlier work
IKr potassium channel [4] = molecular target: T2, IKr potassium channel; experiment: ECG changes three hours after a single oral dose of 80 mg sotalol in healthy volunteers (Example 1); type: in vivo; design: from tissue; host or cells: heart of living human volunteers (in vivo ECG); details: for decrease in TAmp / increase in TpTe: H3 after 80 mg sotalol vs basal; for subjects exhibiting a double peak (notch) / subjects exhibiting a double peak (notch), proportion: after 80 mg sotalol
Method: Results obtained on a cohort of 995 volunteers in good health, from 18 to 60 years old, of European or North African origin, were used for the development of a marker representative of inhibition of the IKr potassium channel.
Briefly, the electrocardiogram (ECG) of the patients (each one in triplicate, for 10 seconds) was recorded after 10 minutes at rest lying on their back. A single oral dose of 80 mg of sotalol was then given to the patients and the ECG monitoring was continued. Three hours after the sotalol had been taken, the ECG was again recorded (in triplicate) after the subjects had remained lying on their back for 10 minutes.
The QTcF (QT corrected using Fridericia's formula), TpTe (interval between the first peak and the end of the T wave), TAmp (amplitude of the first peak of the T wave) and the presence of double peaks in the T wave (called notches) were quantified. The Fridericia correction (QTcF) was used to correct the QT with respect to the heart rate, in accordance with the ICH guidelines E14.
TpTe was measured using the tangent method, in triplicate, on a representative heart beat (averaged representation of an ECG of 10 seconds) on the V3, V4 and V5 derivations. In the event of a double peak of the T wave (notch), the peak taken into consideration was the first peak, even if the amplitude of the T wave was smaller for this peak. The average value obtained was retained. In the event of it being impossible to measure TpTe on V3, V4 or V5, the measurement was instead carried out on V2 (for V3), or V6 (for V4/V5).
In order to measure TAmp, positioning was on the site of the maximum amplitude of the first peak of the T wave on a representative beat (averaged representation of an ECG of 10 seconds) on the DII, V2 and V3 leads. The average of the TAmp values resulting from these three leads, and measured on three different ECGs of 10 seconds (in triplicate), was calculated and retained. If it was not possible to measure a TAmp on one of these leads (in particular because of a low value (<0.1 mV)), the V4 lead was used.
QTcF was measured using the tangent method on the DII lead for three consecutive beats and the average value of an evaluation in triplicate was retained.
For these parameters, the difference between the value obtained at H3 and the basal value was measured. This difference was expressed as percentage relative to the basal value, and the calculations were carried out such that the value calculated is positive.
The following calculations were therefore carried out: ΔQTcF (%)=(QTcF at H3−QTcF basal)/(QTcF basal)×100 ΔTpTe (%)=(TpTe at H3−TpTe basal)/(TpTe basal)×100 ΔTAmp (%)=(TAmp basal−TAmp at H3)/(TAmp basal)×100
In order to evaluate the double peaks (notches), all the ECGs were evaluated independently by two investigators. The patients were described as notchers or non-notchers, in the event of agreements between the two investigators.
The statistical analyses were carried out with the R software (https://www.r-project.org/).

[5] = test system: transgenic rabbits with a long QT interval; details: cited from earlier work
[6] = first of the two cohorts (exploration)
[7] = second of the two cohorts (replication)
[8] = three hours after single oral dose of 80 mg sotalol vs basal
[9] = three hours after 80 mg sotalol, difference between groups (FIG. 3)

T2 sequence (Q12809 whole entry): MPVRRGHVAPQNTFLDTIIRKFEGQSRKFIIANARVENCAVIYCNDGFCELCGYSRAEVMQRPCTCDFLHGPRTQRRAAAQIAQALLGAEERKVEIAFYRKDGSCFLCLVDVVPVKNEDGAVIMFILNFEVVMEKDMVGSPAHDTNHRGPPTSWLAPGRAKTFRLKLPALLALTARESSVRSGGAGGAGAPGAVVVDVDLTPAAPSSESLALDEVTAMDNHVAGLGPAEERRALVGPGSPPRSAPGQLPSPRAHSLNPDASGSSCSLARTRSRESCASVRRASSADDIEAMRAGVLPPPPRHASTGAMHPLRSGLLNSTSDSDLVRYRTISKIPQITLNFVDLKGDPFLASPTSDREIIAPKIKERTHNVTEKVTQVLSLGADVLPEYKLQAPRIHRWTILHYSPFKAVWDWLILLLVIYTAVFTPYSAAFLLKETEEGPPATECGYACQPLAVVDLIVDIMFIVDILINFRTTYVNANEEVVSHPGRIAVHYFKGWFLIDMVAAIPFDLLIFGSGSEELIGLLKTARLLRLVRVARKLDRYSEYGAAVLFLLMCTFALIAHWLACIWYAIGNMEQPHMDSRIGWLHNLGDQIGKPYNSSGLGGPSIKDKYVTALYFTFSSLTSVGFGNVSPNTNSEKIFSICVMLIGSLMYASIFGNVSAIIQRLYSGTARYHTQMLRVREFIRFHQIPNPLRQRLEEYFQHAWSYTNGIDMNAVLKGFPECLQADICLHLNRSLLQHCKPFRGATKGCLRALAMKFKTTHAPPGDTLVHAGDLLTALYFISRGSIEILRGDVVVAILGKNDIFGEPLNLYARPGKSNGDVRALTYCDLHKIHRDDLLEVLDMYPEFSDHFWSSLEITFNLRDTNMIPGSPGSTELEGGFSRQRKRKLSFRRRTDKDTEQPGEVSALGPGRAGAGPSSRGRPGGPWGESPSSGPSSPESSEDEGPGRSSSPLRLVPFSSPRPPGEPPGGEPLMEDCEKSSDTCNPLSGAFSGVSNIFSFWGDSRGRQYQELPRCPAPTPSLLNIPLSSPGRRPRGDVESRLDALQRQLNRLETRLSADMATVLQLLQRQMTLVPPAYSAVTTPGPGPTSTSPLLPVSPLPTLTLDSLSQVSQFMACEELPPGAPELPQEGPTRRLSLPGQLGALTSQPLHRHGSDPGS

C[C@]12CCC3=C4CCC(=O)C=C4CC[C@H]3[C@@H]1CC[C@@]2(O)CC#N [dienogest]
Androgenicity [1]: low androgenic activity, or even an anti-androgenic activity

CCCCCCC(=O)O[C@H]1CC[C@H]2[C@@H]3CCC4=CC(=O)CC[C@]4(C)[C@H]3CC[C@]12C [testosterone, testosterone enantate]
repolarization (torsades de pointes; following the introduction of testosterone, one patient): normalized | recurrence of torsades de pointes (defibrillator monitoring) (torsades de pointes; three months following the introduction of testosterone, despite reintroduction of QTc-prolonging drug (Vemurafenob)): absence of recurrence of torsades de pointes

C#C[C@]1(O)CC[C@H]2[C@@H]3CCC4=CCCC[C@@H]4[C@H]3C(=C)C[C@@]21CC [desogestrel]
incidence of double peaks (notches) (IKr potassium channel [2]; female, human, in vivo, 3 h): 7.3% | effect with regard to the appearance of a double peak (notch) of the T wave (IKr potassium channel [2]; in vivo): protective | risk of drug-induced IKr inhibition (IKr potassium channel [2]; in vivo): neutral | Progestogenic activity [3]: High

CC(C)NCC(O)c1ccc(NS(C)(=O)=O)cc1 (centres unmarked) [sotalol]
average QTc increase observed with sotalol (IKr potassium channel [2]; study of the present application, as summarised): 20 ms | decrease in TAmp (IKr potassium channel [4]; exploration cohort): 13.6±15.7% | increase in TpTe (IKr potassium channel [4]; exploration cohort): 14.2±15.6% | subjects exhibiting a double peak (notch) (IKr potassium channel [4]; [6]): 40 subjects | subjects exhibiting a double peak (notch), proportion (IKr potassium channel [4]; [6]): 8% | PC1 value (IKr potassium channel [4]; non-notchers, exploration cohort): 0.3±1.1 | PC1 value (IKr potassium channel [4]; non-notchers, replication cohort): 0.3±1.1 | PC1 value (IKr potassium channel [4]; notchers, exploration cohort, PC1 correlates negatively with ΔQTc, ΔTAmp, ΔTpTe): −2.5±1.5 | PC1 value (IKr potassium channel [4]; notchers, replication cohort): −2.3±1.8 | decrease in TAmp (IKr potassium channel [4]; replication cohort): 12.8±15.3% | increase in TpTe (IKr potassium channel [4]; replication cohort): 15.9±20.5% | subjects exhibiting a double peak (notch) (IKr potassium channel [4]; [7]): 51 subjects | subjects exhibiting a double peak (notch), proportion (IKr potassium channel [4]; [7]): 10% | absolute change in the duration of QTcF (IKr potassium channel [4]; [8]): 21.4 ± 14 ms | relative change in the duration of QTcF (IKr potassium channel [4]; [8]): 5.5±3.5%

C[C@]12CCC(=O)C=C1[C@@H]1C[C@@H]1[C@H]1[C@@H]3[C@@H]4C[C@@H]4[C@@]4(CCC(=O)O4)[C@@]3(C)CC[C@@H]12 [drospirenone]
risk of drug-induced IKr inhibition (IKr potassium channel [2]; conclusion in words, by pill type): greatest risk | increase in QTcF greater than that of patients taking levonorgestrel (IKr potassium channel [2]; [9]): 7.0 ± 2.7 ms | increase in QTcF greater than that of patients without hormonal contraception (IKr potassium channel [2]; [9]): 6.6 ± 2.6 ms | incidence of double peaks (notches) (IKr potassium channel [2]; three hours after administration of Sotalol, by pill type (FIG. 4)): 25.8% | Progestogenic activity [3]: Intermediate

C#C[C@]1(O)C=C[C@H]2[C@@H]3CCC4=CC(=O)CC[C@@H]4[C@H]3CC[C@@]21CC [gestodene]
incidence of double peaks (notches) (IKr potassium channel [2]; female, human, in vivo, 3 h): 23.5% | Progestogenic activity [3]: High | Androgenicity [1]: Intermediate/variable

C#C[C@]1(O)CC[C@H]2[C@@H]3CCC4=CC(=O)CC[C@@H]4[C@H]3CC[C@@]21CC [levonorgestrel]
effect with regard to the increase in QT (IKr potassium channel [2]; conclusion in words): protective | incidence of double peaks (notches) (IKr potassium channel [2]; female, human, in vivo, 3 h): 16.4% | risk of drug-induced IKr inhibition (IKr potassium channel [2]; in vivo): neutral | Progestogenic activity [3]: High

CC(=O)[C@H]1CC[C@H]2[C@@H]3CCC4=CC(=O)CC[C@]4(C)[C@H]3CC[C@]12C [progesterone]
effect on sudden death [5]: protective effect
